Data taken from patent US20240300943A1, “NOVEL SALTS OF HETEROCYCLIC COMPOUND AS PROTEIN KINASE INHIBITOR AND USES THEREOF” (HK INNO.N CORPORATION, priority 2021, published 2024).

How the values were obtained:
[1] = Photostability evaluation; assay type: physicochemical
Text: Samples were packaged in LPDE bag, and stored under visible (1.2M Lux-h), UV (200 W-h/m2) and UV+visible conditions, respectively, and then evaluated.

[2] = tested on: DNBS-induced animal model (IBD rat model); assay: DNBS-induced colitis model; assay type: in vivo; details: oral, once a day, four weeks, FIG. 26
Procedure: Before induction of colitis with DNBS every week, experimental animals were fasted for 24 hours. Fasted animals were lightly anesthetized with isoflurane, catheter tubes with a length of 8 cm were inserted into the rat anus, and then colitis was induced by slowly injecting 250 μL of DNBS [15 mg (1st week), 30 mg (2nd week), 45 mg (3rd week) and 60 mg (4th week) in 250 μL of 50% ethanol] solution using a syringe pump at a rate of 100 μL/min. After the injection of the solution, a head-down posture was maintained for one minute so that the solution may spread evenly in the animal's intestines and may not leak out of the body. […]
The large intestine tissue extracted from the sacrificed experimental animals was photographed to measure the length of the large intestine. The length of the large intestine was measured from the taken picture using an image program (Leica Application Suite V4). […] The measured weight and length were used to convert the large intestine ratio (mg/cm) (=large intestine weight (mg)/large intestine length (cm)).
Calprotectin & c-reactive protein (CRP) and IFN-γ from serum collected at autopsy were analyzed by ELISA. […]

JAK1, Tyk2 = assay: In vitro cell assay, JAK1, Tyk2 (U2OS cells, IFN-alphaB2); assay type: cell-based; details: Homo sapiens, read-out: IC50, Cell Biology JAK1, Tyk2
Procedure: Furthermore, there is a literature in which U20S cells are associated with JAK1/TYK2 signaling activity and phosphorylation of STAT1 by IFN-alphaB2 and IFN-γ. Accordingly, U2OS cells were prepared for the evaluation of JAK1 and TYK2 as a cell line which strongly expresses STAT1 signals.
The test material was dissolved in DMSO, prepared at 10 mM, divided by 20 μL each, and stored at −20° C.
• EPO: 2000 U/0.5 mL of stock was divided by 50 μL each and stored under refrigeration. • IL-2: 200 μg/ml of stock was prepared, divided by 5 μL each, and stored, and then treated at 2 ng/ml. (IL-2 1 μg/ml=13000 U/ml) • IFN-alphaB2: […] of stock was diluted and used, and then treated to reach 30000 U/ml.
• UT-7/EPO cell assay: MEM-alpha (Gibco, cat #12561-056) was prepared to contain 5% FBS and 1% P/S before use. • NK-92 cell assay: A preparation was made to contain HBSS, 1% FBS and 1% P/S before use. • U2OS cell assay: A preparation was made to contain HBSS, 1% FBS and 1% P/S before use.
The cultured cells were centrifuged (1,000 rpm, 5 minutes) and washed with PBS. The size of cell lines and appropriate reaction concentration thereof were set and the cell lines were seeded in a 96-well plate at 1×10^5 to 10^6 cells/well (50 μL/well). The test material was prepared 4× of the concentration to be treated, and prepared at five to six concentrations by serial dilution of ⅕ each. […]

JAK1 = assay: Human whole blood assay, JAK1; assay type: cell-based; details: cytokine-induced STAT phosphorylation
Procedure: A stock solution of Compound 1 obtained according to Preparation Example 1 was diluted with distilled water and then serially diluted at ⅕ with 4% DMSO. 5 μL of test material was added to 100 μL of whole blood collected using a 1.7 mL eppendorf tube, mixed, and incubated at 37° C. for 45 minutes.
IL-6 (10 μg/ml) was diluted with 0.1% BSA/DW to reach 1 μg/mL each. 5 μL of IL-6 was added (at a final concentration of 50 ng/mL) and incubated at 37° C. for 15 minutes. At this time, 5 μL of DPBS was added as a non-stimulated control group. Lyse/fix buffer 5× was diluted 1× in distilled water and used. […]
For double staining of CD4 and pSTATI, anti-[…] and anti-pSTATI were mixed in a staining buffer and added to each of the samples. […] On the next day, the results were analyzed using FACSCanto II. […]
The numerical values analyzed by FlowJo were calculated to obtain IC50 values using GraphPad Prism 5 software (product name).
No treatment response (NTR) was set as a reference, and the degree of the phosphorylation of STAT induced by cytokines was converted into a relative ratio (% control group). A dose-response plot was obtained for each concentration-dependent activity of each test material using GraphPad Prism (version 5.0) and ICso values were calculated.

| SMILES | Individual related material ([1]; Initial) [%] | Total related material ([1]; Initial) [%] | Individual related material ([1]; Solid, Control) [%] | Total related material ([1]; Solid, Control) [%] | Individual related material ([1]; Solid, UV (200 W-h/m2)) [%] | Total related material ([1]; Solid, UV (200 W-h/m2)) [%] | Individual related material ([1]; Solid, UV + Vis) [%] | Total related material ([1]; Solid, UV + Vis) [%] | Individual related material ([1]; Solid, UV + Vis Control) [%] | Total related material ([1]; Solid, UV + Vis Control) [%] | Individual related material ([1]; Solid, Vis (1.2M Lux-h)) [%] | Total related material ([1]; Solid, Vis (1.2M Lux-h)) [%] | Efficacy in IBD rat model [2] | Level of proinflammatory cytokines compared to the control group (vehicle) [2] | IC50 (JAK1, Tyk2) [nM] | IC50 (JAK1) [nM] |
| --- | --- | --- | --- | --- | --- | --- | --- | --- | --- | --- | --- | --- | --- | --- | --- | --- |
| C[C@@H]1CN(C(=O)CC#N)CC=C1c1cc(NC(=O)C2CC2)nc2[nH]ccc12 [Example 3, (S)—N-(4-(1-(2-cyanoacetyl)-3-methyl-1,2,3,6-tetrahydropyridin-4-yl)-1H-pyrrolo[2,3-b]pyridin-6-yl)cyclopropanecarboxamide] | 0.08 | 0.45 | 0.07 | 0.37 | 0.1 | 0.42 | 0.08 | 0.5 | 0.08 | 0.48 | 0.07 | 0.41 | – | – | – | – |
| C[C@@H]1CN(C(=O)CC#N)CC=C1c1cc(NC(=O)C2CC2)nc2[nH]ccc12 [Compound 1, (S)—N-(4-(1-(2-cyanoacetyl)-3-methyl-1,2,3,6-tetrahydropyridin-4-yl)-1H-pyrrolo[2,3-b]pyridin-6-yl)cyclopropanecarboxamide] | – | – | – | – | – | – | – | – | – | – | – | – | exhibits efficacy in an IBD rat model | significantly lower level of proinflammatory cytokines | 27 | 70 |
